Data: ChEMBL document CHEMBL1154346 (Bioorg Med Chem Lett, 2009)

Tests used:
[1] = Toxicity in iv dosed mouse assessed as loss of righting reflex; assay type: organism-based; conditions: in vivo, read-out: HD50 (the source's name)
[2] = system: Canis familiaris; assay: Cardiotoxicity in conscious dog assessed as prolongation of QT interval; assay type: toxicity, organism-based, Canis lupus familiaris; conditions: in vivo
[3] = molecular target: Voltage-gated inwardly rectifying potassium channel KCNH2 (Homo sapiens, UniProt Q12809); assay: Displacement of [3H]dofetilide from human ERG expressed in HEK293 cells; assay type: cell-based
Voltage-gated inwardly rectifying potassium channel KCNH2, sequence (Q12809 whole entry): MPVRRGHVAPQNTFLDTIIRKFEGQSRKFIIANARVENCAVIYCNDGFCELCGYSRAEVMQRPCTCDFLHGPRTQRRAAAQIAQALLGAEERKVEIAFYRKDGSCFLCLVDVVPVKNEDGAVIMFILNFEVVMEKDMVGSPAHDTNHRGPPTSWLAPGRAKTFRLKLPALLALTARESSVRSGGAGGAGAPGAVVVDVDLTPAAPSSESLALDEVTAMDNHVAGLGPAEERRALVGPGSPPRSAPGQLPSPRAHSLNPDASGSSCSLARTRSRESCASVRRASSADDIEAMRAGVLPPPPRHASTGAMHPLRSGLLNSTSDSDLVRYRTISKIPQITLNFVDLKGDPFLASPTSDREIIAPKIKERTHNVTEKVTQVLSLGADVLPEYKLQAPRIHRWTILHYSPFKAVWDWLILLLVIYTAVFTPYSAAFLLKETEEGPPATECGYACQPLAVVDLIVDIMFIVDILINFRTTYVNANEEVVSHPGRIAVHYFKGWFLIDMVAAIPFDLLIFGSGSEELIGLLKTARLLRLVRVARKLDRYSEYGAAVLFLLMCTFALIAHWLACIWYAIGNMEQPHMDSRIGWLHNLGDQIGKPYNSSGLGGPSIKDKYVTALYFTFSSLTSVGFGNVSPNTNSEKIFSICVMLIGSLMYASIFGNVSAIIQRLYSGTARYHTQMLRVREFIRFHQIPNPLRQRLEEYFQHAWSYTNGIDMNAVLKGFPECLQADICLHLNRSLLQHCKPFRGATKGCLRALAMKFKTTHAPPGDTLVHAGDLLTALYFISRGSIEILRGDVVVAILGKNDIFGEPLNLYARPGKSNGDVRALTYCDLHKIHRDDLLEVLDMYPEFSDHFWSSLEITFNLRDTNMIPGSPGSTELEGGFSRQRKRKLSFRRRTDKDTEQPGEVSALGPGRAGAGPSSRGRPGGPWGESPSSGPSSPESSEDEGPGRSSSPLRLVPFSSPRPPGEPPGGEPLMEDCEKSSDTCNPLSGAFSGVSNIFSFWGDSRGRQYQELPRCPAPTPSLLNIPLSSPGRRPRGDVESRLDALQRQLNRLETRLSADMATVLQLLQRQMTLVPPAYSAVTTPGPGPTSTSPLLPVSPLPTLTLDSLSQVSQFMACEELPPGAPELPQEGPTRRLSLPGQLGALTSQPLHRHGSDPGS

## CNC(=O)Cn1c(=O)n(C2CCN(CCC(Oc3cc(OC)ccc3C)C(C)C)CC2)c2ccccc21 (racemic)
[1]
  TD50: 4.7 µmol/kg
[2]
  Activity: 10%
[3]
  Ki: 0.056 µM
